Laboratory results: US20200038412A1, “METHODS OF TREATING ALZHEIMER'S DISEASE USING AMINOSTEROL COMPOSITIONS” (Enterin, Inc., priority 2018, published 2020)

Legend:
[1] = test system: patients with PD and constipation; test: Phase 2 trial Stage 2: bowel function under daily oral dosing (escalation, fixed dose, wash-out); type: in vivo, human
Protocol: Following successful screening, all subjects underwent a 14-day run-in period where the degree of constipation was assessed through a validated daily log (Zinsmeister et al. 2013) establishing baseline CSBMs/week. Subjects with an average of <3 CSBMs/week proceeded to dosing.
In Stage 2, 34 patients were evaluated.
The primary efficacy outcome variable was whether or not a subject was a “success” or “failure”. This is an endpoint based on subject diary entries for the “fixed dose” period prior to the endpoint assessment defined as average complete stool frequency increase by 1 or more over baseline, or 3 or more complete spontaneous stools/week. The subject was deemed a “success” if s/he met one or more of the criteria listed above, otherwise the subject was deemed a “failure”. The primary analysis was based on all subjects with a baseline assessment and an assessment at the end of the “fixed-dose” period and was a comparison of the proportion of successes with 0.10 (the null hypothesis corresponding to no treatment effect).

[2] = test system: patients with PD and constipation; test: Phase 2 trial, all dosed patients (Stage 1 and 2): adverse events; type: in vivo, human
Protocol: Fifty patients were enrolled and 44 were dosed. In Stage 1, 10 patients were dosed, 1 (10%) withdrew prior to completion and 9 (90%) completed dosing. In stage 2, 6 (15%) patients had ≥3 CSBM/week at the end of the run-in period and were excluded, 34 patients were dosed and bowel response was assessable in 31 (91%). Two patients (5.8%) were terminated prior to completion because of recurrent dizziness, and 3 others withdrew during dosing (8.8%): 2 because of diarrhea and 1 because of holiday. Fifteen patients were randomized.
Most AEs were confined to the GI tract (88% in Stage 1 and 63% in Stage 2). The most common AE was nausea which occurred in 4/10 (40%) patients in Stage 1 and in 18/34 (52.9%) in Stage 2 (Table 2). Diarrhea occurred in 4/10 (40%) patients in Stage 1 and 15/34 (44%) in Stage 2. One patient withdrew because of recurrent diarrhea. Other GI related AEs included abdominal pain 11/44 […], flatulence 3/44 (6.8%), vomiting 3/44 (6.8%), worsening of acid reflux 2/44 (4.5%), and worsening of hemorrhoids 1/44 (2.2%). […] The only other noteworthy AE was dizziness 8/44 (18%). Dizziness was graded as moderate in one patient who was receiving an alpha-adrenergic blocking agent (Terazosin). This patient was withdrawn from the study and recovered spontaneously.

[3] = Pharmacokinetics of orally administered squalamine (ENT-01) in Stage 1; type: in vivo, human
Protocol: PK data were collected on the 10 patients enrolled in Stage 1 and 10 patients enrolled in Stage 2 to determine the extent of systemic absorption. In Stage 1, PK data were obtained at each visit, pre-medication, at 1, 2, 4, 8 and 24 hours (Table 10). In Stage 2, PK was measured on days 1 and 6 of the randomization period pre-medication, at 1, 2, 4 and 8 hours (Table 11).
The mean Cmax, Tmax and T1/2 and AUC of the squalamine ion following squalamine (ENT-01) oral dosing for Stage 1 patients. The PK analyses are only approximate, as the lower limit of the validated concentration range was 10 ng/ml; most of the measured concentrations fell below that value. The mean Cmax, Tmax and T1/2 and AUC of the squalamine ion following squalamine (ENT-01) oral dosing for Stage 2 patients. The PK analyses are only approximate, as the lower limit of the validated concentration range was 0.5 ng/ml.

[4] = Preclinical oral dosing in dogs; type: in vivo

In the case of `CC(C)[C@@H](CC[C@@H](C)[C@H]1CC[C@H]2[C@@H]3[C@H](O)C[C@H]4C[C@@H](NCCCNCCCCN)CC[C@]4(C)[C@H]3CC[C@]12C)OS(=O)(=O)O` (single isomer, unassigned) [squalamine (ENT-01), squalamine], the “improvement of ease of passage” value ([1]; 3.2 to 3.7) was 16%, the “response rate (CSBM within 24 hours of dosing on at least 2 of 3 days)” value ([1]; Stage 2, daily oral dosing, 75 mg) was 26% and the “CSBM, weekly average” value ([1]; Stage 2, fixed dose, mean (SD), n = 34, baseline 1.2 (0.90)) was 3.8 (2.4) CSBM/week. The “Suppository use / rescue medication, weekly average” value ([1]; Stage 2, fixed dose, mean (SD), n = 34, baseline 1.8 (1.92)) was 0.3 (0.67) /week, the “Consistency (Bristol stool scale 1-7)” value ([1]; Stage 2, fixed dose, mean (SD), n = 34, baseline 2.7 (1.20), listed as aminosterol) was 4.1 and the “Ease of passage (Ease of evacuation scale 1-7)” value ([1]; Stage 2, fixed dose, mean (SD), n = 34, baseline 3.2 (0.73), listed as aminosterol) was 3.7. For the same molecule, the PAQ-SYM ([1]; Stage 2, wash-out, mean (SD), baseline 1.3 (0.45)) was 1.1 (0.60), the PAQ-QOL ([1]; Stage 2, wash-out, mean (SD), baseline 1.4 (0.49)) was 1.2 (0.63) and the Rescue meds ([1]; Stage 2, wash-out, mean (SD), baseline 1.8 (1.92)) was 1.0 (1.40). The Consistency ([1]; Stage 2, wash-out, mean (SD), baseline 2.7 (1.20)) was 2.8 (1.39), the Ease ([1]; Stage 2, wash-out, mean (SD), baseline 3.2 (0.73)) was 3.3 (0.81) and the “improvement of average CSBM/week” value ([1]; baseline 1.2 to fixed dose 3.8) was 216%. For the same molecule, the “decrease of use of rescue medication” value ([1]; baseline 1.8/week to fixed dose 0.3) was 83%, the “improvement of SBM” value ([1]; baseline 2.6 to fixed dose 4.5) was 73% and the “CSBM frequency in the randomized cohort” value ([1]; group later randomized to placebo (n = 9), fixed dose period (still on drug), baseline 1.6) was 3.3 CSBM/week. The “CSBM frequency in the randomized cohort” value ([1]; group randomized to treatment (n = 6), fixed dose period, baseline 0.8) was 3.2 CSBM/week, the “CSBM frequency in the randomized cohort” value ([1]; group randomized to treatment (n = 6), randomized period (4-6 days continued treatment), baseline 0.8) was 2.4 CSBM/week and the “CSBM frequency in the randomized cohort” value ([1]; group randomized to treatment (n = 6), washout, baseline 0.8) was 0.9 CSBM/week. For the same molecule, the “improvement of consistency (Bristol stool scale)” value ([1]; mean 2.7 to 4.1) was 52%, the “mean dose required for a bowel response (prokinetic dose)” value ([1]; patients with baseline ≥1 CSBM/week) was 120 mg and the patients responding ([1]; within effective dose range 75 mg to 250 mg) was 85%. The “patients with worsening of hemorrhoids” value ([2]; 1/44 dosed patients) was 2.2%, the “patients with worsening of acid reflux” value ([2]; 2/44 dosed patients) was 4.5% and the patients with flatulence ([2]; 3/44 dosed patients) was 6.8%. For the same molecule, the patients with vomiting ([2]; 3/44 dosed patients) was 6.8%, the patients with dizziness ([2]; 8/44 dosed patients) was 18% and the AUC0-8 hr ([3]; Stage 1, oral 50 mg, 10 patients) was 18.5 ng·h/mL. For the same molecule, the AUC0-8 hr ([3]; Stage 1, oral 100 mg, 9 patients) was 29.6 ng·h/mL, the AUC0-8 hr ([3]; Stage 1, oral 200 mg, 6 patients) was 78.3 ng·h/mL and the T1/2 ([3]; Stage 1, oral 200 mg, n = 5) was 9.0 (5) hours. For the same molecule, the approximate oral bioavailability ([3]; Stage 1, oral dosing up to 200 mg, compared with prior phase 1 IV data) was “about 0.1%”, the bioavailability ([3]; human, plasma, oral, PD patients, estimated from pharmacokinetic behavior of intravenously administered squalamine in prior clinical studies) was less than 0.3% and the bioavailability [4] was “limited bioavailability”. For the same molecule, the tolerability [4] was “well tolerated” and the oral bioavailability ([4]; preclinical studies) was “about 0.1%”.
